Common to all, as to test: biochemical
Experiment [1] has as its target ABL2 (Homo sapiens, UniProt P42684).
In experiment [2] the target is BMP2K (Homo sapiens, UniProt Q9NSY1).
The target in experiment [3] is CDK7 (Homo sapiens, UniProt P50613).
Experiment [4] addresses T1, IKBKB (Homo sapiens, UniProt O14920).
T1 sequence (O14920 1-756): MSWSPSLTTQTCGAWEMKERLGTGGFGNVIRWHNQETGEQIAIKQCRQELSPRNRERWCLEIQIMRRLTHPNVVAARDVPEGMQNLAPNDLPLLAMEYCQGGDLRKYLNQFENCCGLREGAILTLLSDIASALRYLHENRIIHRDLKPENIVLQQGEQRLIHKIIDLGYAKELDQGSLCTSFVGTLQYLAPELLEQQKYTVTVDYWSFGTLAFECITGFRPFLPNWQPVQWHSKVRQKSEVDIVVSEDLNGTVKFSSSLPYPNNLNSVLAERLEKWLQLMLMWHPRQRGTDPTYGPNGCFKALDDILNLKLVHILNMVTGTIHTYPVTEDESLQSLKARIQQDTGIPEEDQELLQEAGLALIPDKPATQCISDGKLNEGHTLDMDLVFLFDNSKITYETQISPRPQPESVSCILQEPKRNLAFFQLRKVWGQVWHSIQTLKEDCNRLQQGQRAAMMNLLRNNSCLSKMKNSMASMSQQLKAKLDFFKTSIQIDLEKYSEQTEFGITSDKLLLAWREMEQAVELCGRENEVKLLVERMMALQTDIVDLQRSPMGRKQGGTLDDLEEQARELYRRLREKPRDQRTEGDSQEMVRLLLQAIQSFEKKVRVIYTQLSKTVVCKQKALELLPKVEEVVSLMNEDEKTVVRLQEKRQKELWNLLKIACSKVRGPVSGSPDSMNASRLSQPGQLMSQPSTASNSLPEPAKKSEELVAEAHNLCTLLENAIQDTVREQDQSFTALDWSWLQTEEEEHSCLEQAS

In experiment [5] the target is LYN (Homo sapiens, UniProt P07948).
Experiment [6] concerns the target MAPK1 (Homo sapiens, UniProt P28482).
In experiment [7] the target is T2, MYLK3 (Homo sapiens, UniProt Q32MK0).
T2 sequence (Q32MK0 1-819): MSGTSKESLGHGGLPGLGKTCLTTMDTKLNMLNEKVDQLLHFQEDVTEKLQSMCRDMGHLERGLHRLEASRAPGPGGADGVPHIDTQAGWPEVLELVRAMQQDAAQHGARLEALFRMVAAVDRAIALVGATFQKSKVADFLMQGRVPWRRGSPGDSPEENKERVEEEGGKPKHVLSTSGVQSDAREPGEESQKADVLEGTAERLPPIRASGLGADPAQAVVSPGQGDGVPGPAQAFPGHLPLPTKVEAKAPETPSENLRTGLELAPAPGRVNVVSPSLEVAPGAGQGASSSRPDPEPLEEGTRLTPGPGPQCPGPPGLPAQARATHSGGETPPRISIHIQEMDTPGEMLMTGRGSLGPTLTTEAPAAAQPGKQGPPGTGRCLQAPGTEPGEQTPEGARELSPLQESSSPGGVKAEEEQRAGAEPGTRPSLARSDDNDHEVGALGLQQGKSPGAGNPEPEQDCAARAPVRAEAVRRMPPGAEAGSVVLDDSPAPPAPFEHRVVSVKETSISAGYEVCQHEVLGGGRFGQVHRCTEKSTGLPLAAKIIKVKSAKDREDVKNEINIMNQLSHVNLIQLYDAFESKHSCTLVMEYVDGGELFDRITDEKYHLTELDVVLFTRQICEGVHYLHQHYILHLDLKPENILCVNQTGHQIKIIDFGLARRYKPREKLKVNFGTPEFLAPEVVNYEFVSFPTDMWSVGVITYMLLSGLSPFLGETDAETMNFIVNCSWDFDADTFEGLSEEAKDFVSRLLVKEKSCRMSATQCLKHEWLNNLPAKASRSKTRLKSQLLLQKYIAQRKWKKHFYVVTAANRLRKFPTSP

Experiment [8] has as its target T3, PKMYT1 (Homo sapiens, UniProt Q99640).
T3 sequence (Q99640 1-499): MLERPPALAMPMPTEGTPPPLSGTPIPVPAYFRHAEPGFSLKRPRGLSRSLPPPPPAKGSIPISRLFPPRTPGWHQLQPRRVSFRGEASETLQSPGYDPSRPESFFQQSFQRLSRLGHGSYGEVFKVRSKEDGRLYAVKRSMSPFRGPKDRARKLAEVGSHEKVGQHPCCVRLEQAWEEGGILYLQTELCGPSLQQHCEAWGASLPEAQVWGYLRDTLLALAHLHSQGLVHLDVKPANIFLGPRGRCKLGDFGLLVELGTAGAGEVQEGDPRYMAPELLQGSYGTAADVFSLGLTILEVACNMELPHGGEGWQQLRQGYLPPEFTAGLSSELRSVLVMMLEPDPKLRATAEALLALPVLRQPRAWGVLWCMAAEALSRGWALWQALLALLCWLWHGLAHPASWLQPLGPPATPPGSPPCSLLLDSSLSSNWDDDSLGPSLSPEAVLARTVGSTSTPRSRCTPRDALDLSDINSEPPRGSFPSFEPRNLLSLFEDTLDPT

Experiment [9] deals with T4, PRKX (Homo sapiens, UniProt P51817).
T4 sequence (P51817 1-358): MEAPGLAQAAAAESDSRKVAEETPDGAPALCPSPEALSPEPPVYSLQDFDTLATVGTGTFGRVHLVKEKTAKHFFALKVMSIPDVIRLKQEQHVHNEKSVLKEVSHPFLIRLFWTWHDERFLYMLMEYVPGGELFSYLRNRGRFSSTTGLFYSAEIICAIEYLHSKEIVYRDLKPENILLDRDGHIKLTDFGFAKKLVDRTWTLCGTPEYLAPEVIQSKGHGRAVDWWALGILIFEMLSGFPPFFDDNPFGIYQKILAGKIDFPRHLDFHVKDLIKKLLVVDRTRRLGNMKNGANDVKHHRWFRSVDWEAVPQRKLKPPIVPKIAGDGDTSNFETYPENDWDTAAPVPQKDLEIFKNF

Experiment [10] has as its target SLK (Homo sapiens, UniProt Q9H2G2).
Experiment [11] deals with STK10 (Homo sapiens, UniProt O94804).

The source of these data is PMC4774911, “Biochemical Screening of Five Protein Kinases from Plasmodium falciparum against 14,000 Cell-Active Compounds” (PLoS ONE, 2016).

Molecules are shown by their SMILES. “And” between values parts separate entries of the source, which are not always exact repeats. Identical values can stand only once.

Chain of CDK7 (P50613 whole entry): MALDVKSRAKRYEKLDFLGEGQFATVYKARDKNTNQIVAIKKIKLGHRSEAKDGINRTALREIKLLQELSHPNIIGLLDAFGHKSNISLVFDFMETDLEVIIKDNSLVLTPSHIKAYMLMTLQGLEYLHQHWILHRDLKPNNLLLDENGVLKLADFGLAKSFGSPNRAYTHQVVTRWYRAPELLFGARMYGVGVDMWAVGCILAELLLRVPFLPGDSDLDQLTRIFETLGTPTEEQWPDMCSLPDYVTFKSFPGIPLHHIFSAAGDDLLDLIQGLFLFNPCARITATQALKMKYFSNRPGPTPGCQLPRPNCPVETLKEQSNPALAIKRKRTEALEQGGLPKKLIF
Chain of SLK (Q9H2G2 whole entry): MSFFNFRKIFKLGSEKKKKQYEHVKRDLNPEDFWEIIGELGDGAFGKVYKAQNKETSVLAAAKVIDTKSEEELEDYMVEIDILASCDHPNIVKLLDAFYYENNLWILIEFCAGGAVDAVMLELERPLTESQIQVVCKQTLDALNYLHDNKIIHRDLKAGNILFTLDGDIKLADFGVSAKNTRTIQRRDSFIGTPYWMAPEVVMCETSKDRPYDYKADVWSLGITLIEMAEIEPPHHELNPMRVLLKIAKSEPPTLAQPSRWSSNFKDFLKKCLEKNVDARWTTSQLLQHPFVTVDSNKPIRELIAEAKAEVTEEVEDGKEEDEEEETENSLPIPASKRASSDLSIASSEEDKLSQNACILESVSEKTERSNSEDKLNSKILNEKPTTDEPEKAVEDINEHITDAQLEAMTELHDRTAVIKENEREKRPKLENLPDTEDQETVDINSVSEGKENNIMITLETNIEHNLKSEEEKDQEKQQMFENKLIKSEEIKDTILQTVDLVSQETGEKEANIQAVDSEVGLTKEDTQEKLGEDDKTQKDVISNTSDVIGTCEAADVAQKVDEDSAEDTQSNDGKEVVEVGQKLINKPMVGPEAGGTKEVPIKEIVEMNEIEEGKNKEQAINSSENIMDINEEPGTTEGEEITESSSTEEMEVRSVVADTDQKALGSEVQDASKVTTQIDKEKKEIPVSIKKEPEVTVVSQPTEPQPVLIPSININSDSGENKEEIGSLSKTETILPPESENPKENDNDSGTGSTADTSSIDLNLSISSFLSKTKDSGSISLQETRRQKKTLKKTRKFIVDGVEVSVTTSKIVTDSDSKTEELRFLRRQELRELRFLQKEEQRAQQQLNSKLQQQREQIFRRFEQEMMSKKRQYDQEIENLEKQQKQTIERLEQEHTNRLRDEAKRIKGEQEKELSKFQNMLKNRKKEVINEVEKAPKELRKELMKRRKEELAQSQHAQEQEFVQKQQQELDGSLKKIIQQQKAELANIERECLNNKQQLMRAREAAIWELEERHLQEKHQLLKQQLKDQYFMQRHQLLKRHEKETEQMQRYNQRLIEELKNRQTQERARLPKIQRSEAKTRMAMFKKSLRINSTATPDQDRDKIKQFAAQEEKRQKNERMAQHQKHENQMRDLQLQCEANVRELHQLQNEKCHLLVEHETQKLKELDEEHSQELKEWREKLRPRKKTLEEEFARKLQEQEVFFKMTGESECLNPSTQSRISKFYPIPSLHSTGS
Chain of BMP2K (Q9NSY1 whole entry): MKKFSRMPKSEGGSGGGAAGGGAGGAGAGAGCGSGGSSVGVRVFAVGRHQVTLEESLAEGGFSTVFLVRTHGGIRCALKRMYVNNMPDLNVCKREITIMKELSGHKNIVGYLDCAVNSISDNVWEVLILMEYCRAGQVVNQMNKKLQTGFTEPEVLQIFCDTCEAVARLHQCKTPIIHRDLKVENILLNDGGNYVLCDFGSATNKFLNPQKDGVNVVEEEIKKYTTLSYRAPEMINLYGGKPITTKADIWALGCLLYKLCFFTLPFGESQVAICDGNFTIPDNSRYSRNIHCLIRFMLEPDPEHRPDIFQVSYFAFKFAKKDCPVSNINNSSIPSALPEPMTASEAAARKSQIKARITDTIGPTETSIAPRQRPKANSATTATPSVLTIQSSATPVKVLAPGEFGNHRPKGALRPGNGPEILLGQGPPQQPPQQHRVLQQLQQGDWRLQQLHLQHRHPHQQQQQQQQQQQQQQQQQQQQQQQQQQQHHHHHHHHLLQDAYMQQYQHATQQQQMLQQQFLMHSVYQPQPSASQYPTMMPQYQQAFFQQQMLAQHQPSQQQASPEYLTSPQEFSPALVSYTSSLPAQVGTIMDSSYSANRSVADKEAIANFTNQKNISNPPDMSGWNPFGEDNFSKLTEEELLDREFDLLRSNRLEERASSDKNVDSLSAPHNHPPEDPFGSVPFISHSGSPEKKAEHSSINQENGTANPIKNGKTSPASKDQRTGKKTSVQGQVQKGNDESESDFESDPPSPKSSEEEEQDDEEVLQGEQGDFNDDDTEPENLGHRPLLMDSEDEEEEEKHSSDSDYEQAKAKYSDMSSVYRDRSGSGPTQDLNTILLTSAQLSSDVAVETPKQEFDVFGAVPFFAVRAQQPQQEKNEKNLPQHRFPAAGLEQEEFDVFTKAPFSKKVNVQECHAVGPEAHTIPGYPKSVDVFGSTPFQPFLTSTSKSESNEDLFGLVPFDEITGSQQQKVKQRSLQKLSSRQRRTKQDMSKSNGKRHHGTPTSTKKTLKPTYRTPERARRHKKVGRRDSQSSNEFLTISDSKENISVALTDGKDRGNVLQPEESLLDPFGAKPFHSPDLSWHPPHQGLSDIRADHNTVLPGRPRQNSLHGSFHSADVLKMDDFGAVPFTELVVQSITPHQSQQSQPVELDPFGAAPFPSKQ
Chain of MAPK1 (P28482 whole entry): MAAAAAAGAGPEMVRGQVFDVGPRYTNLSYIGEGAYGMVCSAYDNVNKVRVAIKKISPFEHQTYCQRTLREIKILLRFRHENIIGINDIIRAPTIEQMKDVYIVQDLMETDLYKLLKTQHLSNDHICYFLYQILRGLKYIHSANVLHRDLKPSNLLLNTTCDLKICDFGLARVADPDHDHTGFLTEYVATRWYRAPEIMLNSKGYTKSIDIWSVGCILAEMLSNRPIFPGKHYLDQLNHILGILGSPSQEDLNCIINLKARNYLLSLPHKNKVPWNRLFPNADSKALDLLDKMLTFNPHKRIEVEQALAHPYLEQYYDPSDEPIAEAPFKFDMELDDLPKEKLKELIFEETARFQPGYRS
Chain of LYN (P07948 whole entry): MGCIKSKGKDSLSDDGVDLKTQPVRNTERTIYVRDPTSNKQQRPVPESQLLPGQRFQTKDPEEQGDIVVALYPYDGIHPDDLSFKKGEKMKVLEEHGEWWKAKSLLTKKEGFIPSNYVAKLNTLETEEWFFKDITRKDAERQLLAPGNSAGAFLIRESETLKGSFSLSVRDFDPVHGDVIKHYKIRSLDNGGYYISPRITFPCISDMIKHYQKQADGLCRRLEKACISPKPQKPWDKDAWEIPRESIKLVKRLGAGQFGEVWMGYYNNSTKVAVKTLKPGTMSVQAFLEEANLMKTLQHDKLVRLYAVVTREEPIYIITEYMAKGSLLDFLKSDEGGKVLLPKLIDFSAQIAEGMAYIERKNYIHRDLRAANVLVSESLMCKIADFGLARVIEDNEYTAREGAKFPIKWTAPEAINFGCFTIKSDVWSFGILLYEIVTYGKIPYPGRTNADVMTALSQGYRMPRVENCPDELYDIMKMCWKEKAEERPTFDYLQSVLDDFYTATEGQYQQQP
Chain of ABL2 (P42684 whole entry): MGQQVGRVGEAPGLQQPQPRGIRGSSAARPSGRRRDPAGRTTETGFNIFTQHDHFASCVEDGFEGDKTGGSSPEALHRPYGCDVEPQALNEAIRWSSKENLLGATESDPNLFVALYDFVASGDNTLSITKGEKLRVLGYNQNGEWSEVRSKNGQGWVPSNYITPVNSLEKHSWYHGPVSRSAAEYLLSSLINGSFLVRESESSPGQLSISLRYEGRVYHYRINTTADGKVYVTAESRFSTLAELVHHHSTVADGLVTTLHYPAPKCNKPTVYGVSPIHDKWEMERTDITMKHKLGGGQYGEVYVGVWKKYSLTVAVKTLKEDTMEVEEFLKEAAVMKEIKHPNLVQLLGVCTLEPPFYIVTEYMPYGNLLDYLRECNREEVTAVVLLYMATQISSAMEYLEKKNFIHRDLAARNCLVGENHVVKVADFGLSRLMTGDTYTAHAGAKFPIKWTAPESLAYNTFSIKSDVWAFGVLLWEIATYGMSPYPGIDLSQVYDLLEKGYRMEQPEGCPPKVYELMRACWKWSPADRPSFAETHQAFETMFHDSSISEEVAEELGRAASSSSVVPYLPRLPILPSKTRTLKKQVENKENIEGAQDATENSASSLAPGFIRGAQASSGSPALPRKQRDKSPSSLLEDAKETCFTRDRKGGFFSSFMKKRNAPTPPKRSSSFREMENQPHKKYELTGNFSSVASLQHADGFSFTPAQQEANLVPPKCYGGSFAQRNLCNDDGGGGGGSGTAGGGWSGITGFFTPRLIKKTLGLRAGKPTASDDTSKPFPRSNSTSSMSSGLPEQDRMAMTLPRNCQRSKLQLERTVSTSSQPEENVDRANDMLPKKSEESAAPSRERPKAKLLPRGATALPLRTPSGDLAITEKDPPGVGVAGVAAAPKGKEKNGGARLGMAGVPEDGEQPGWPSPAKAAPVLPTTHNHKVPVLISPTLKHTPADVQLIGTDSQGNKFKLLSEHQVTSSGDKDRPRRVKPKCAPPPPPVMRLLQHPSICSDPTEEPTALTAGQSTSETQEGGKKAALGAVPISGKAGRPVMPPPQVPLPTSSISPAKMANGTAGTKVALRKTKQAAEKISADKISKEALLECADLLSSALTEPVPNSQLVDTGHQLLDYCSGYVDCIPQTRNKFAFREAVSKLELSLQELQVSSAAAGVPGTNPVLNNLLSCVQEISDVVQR

By IC50 is commonly meant the midpoint of a concentration-inhibition curve. Read a high IC50 as weaker potency in that assay. For `CN1CCN(c2ccc(Nc3ncc(C#N)c(Nc4ccccc4C(N)=O)n3)cc2)CC1.Cl` [TCMDC-134116], the IC50 in experiment [1] is 200 nM and 160 nM; in [2], 350 nM and 290 nM; in experiment [3], 530 nM and 620 nM; in experiment [4], > 20000 nM; in experiment [5], 280 nM and 350 nM; in experiment [6] it was > 20000 nM. Moreover, the IC50 in experiment [7] is 67 nM and 93 nM; in experiment [8] it was 1400 nM and 940 nM; in experiment [9], 1300 nM; in experiment [10], 48 nM and 57 nM; in experiment [11], 48 nM and 93 nM.
Regarding `Cl.NCC1(c2nc(-c3ccc(Cl)c(O)c3)c(-c3ccncc3)[nH]2)CCCCC1` [TCMDC-141154], the IC50 in experiment [1] was 490 nM and 400 nM; in experiment [2] it was > 20000 nM; in [3], > 20000 nM; in experiment [4] it was > 20000 nM; in experiment [5] it was 1300 nM; in [6], > 20000 nM. In addition, the 50% inhibitory concentration (IC50) in experiment [7] was > 20000 nM; in experiment [8], > 20000 nM; in experiment [9], > 20000 nM; in experiment [10], ≤ 32 nM; in [11], 57 nM.
Consider `CN(C)CC(O)COc1ccc(Nc2ncc([N+](=O)[O-])c(Nc3ccccc3O)n2)cc1.O=C(O)C(F)(F)F` (stereo not drawn) [TCMDC-141399], for which the half-inhibitory concentration (IC50) in experiment [1] is 4200 nM; in experiment [2], > 20000 nM; in [3], 1800 nM and 5800 nM; in experiment [4], > 20000 nM; in experiment [5], > 20000 nM; in experiment [6], > 20000 nM. Moreover, the IC50 in experiment [7] was 2100 nM and 1800 nM; in experiment [8], > 20000 nM; in experiment [9] it was > 20000 nM; in [10] it was 890 nM and 1000 nM; in [11] it was 6300 nM.
